Measurements published in the NIST ThermoML archive (doi:10.1021/je020228x).
Numbers after ± are expanded uncertainties.

Tests used:
[1] = molar enthalpy of transition or fusion; conditions: Crystal, DSC
[2] = Crystal
[3] = molar heat capacity at constant pressure; conditions: 445.51 K; 101.33 kPa; Crystal; Small sample (50 mg) DSC

Structure (SMILES)	molar enthalpy of transition or fusion ([1]; 383.93 K)	molar enthalpy of transition or fusion ([1]; 451.43 K)	Normal melting temperature ([2]; DTA)	Normal melting temperature ([2]; visual observation)	molar enthalpy of transition or fusion ([1]; 384.43 K)	molar enthalpy of transition or fusion ([1]; 445.51 K)	molar heat capacity at constant pressure [3]
Cc1nc2ccccc2[nH]1 [2-methylbenzimidazole]	0.14 kcal/mol	4.9 kcal/mol	178.28 °C				
CC(C)(C)O [2-methylpropan-2-ol]				24.84 ± 0.39 °C			
c1ccc2[nH]cnc2c1 [benzimidazole]			172.36 °C		0.17 kcal/mol	4.89 kcal/mol	49.09 J/K/mol
